Results reported in PMC10452110, “Indole-3-Acetamido-Polyamines as Antimicrobial Agents and Antibiotic Adjuvants” (Biomolecules, 2023).
Converted amounts (≈) assume the structure as drawn. Like-named read-outs stand apart in the source and are kept apart here.

Legend:
[1] = test system: E. coli ATCC 25922; assay: Enhancement of erythromycin action against E. coli; assay type: cell-based, Escherichia coli; details: erythromycin at 10.9 µM
Experimental: (§1) Antibiotic enhancer concentrations were determined using previously reported protocols.

[2] = test system: P. aeruginosa ATCC 27853; assay: Enhancement of doxycycline action against P. aeruginosa; assay type: cell-based, Pseudomonas aeruginosa; details: doxycycline at 4.5 µM
Experimental: as §1

[3] = Cytotoxicity assay; assay type: cell-based; details: human; HEK293 cells; mean (n = 2); read-out: Cytotoxicity: concentration of compound at 50% cytotoxicity (IC50)
Experimental: Cytotoxicity assays were conducted using the protocols previously reported.

[4] = test system: MRSA (ATCC 43300); assay: Intrinsic antimicrobial activity (MIC) against MRSA; assay type: cell-based; details: Staphylococcus aureus, read-out: MIC MRSA
Experimental: (§2) The susceptibility of bacterial strains Staphylococcus aureus (ATCC 25923), Escherichia coli (ATCC 25922) and Pseudomonas aeruginosa (ATCC 27853) to antibiotics and compounds was determined using previously reported protocols. Additional antimicrobial evaluation against MRSA (ATCC 43300), Klebsiella pneumoniae (ATCC 700603), Acinetobacter baumannii (ATCC 19606), Candida albicans (ATCC 90028) and Cryptococcus neoformans (ATCC 208821) was undertaken at the Community for Open Antimicrobial Drug Discovery at The University of Queensland (Australia) according to their standard protocols, as reported previously.

[5] = test system: Staphylococcus aureus (ATCC 25923); assay: Intrinsic antimicrobial activity (MIC) against S. aureus; assay type: cell-based; details: ATCC25923, S. aureus ATCC 25923, mean (n = 3), read-out: MIC S. a
Experimental: as §2

[6] = test system: Candida albicans (ATCC 90028); assay: Intrinsic antifungal activity (MIC) against C. albicans; assay type: cell-based; details: ATCC90028, C. albicans ATCC 90028, mean (n = 2), read-out: MIC C. a
Experimental: as §2

[7] = test system: Pseudomonas aeruginosa (ATCC 27853); assay: Intrinsic antimicrobial activity (MIC) against P. aeruginosa; assay type: cell-based; details: ATCC27853, P. aeruginosa ATCC 27853, mean (n = 3), read-out: MIC P. a
Experimental: as §2

[8] = test system: human red blood cells; assay: Hemolytic assay; assay type: cell-based; details: mean (n = 2)
Experimental: Hemolysis assays were conducted using the protocols previously reported.

[9] = test system: Cryptococcus neoformans (ATCC 208821); assay: Intrinsic antifungal activity (MIC) against C. neoformans; assay type: cell-based; details: ATCC208821, C. neoformans ATCC 208821, mean (n = 2), read-out: MIC C. n
Experimental: as §2

[10] = test system: Escherichia coli (ATCC 25922); assay: Intrinsic antimicrobial activity (MIC) against E. coli; assay type: cell-based; details: ATCC25922, E. coli ATCC 25922, mean (n = 3), read-out: MIC E. c
Experimental: as §2

Row | SMILES | Eryth/E. c: concentration required to restore erythromycin activity (combination MIC) [1] [µM] | Dox/P. a fold change (ratio between intrinsic MIC of the test compound and combination MIC) [2] [fold] | Dox/P. a: concentration required to restore doxycycline activity (combination MIC) [2] [µM] | IC50 [3] [µM] | MIC ([4]; MRSA ATCC 43300, mean (n = 2)) [µM] | MIC [5] [µM] | MIC [6] [µM] | MIC [7] [µM] | Hemolysis: concentration of compound at 10% hemolytic activity (HC10) [8] [µM] | MIC [9] [µM] | MIC [10] [µM] | MIC [4] [µM]
1 | O=C(Cc1c[nH]c2ccccc12)NCCCNCCCCCCNCCCNC(=O)Cc1c[nH]c2ccccc12.O=C(O)C(F)(F)F.O=C(O)C(F)(F)F [Compound 14b, N^1,N^6-Bis(3-(2-(1H-indol-3-yl)acetamido)propyl)hexane-1,6-diaminium 2,2,2-trifluoroacetate] | > 259 | > 2 | 129 | > 41 | < 0.2 | 129 | > 41 | > 259 | >41 | < 0.2 | > 129 | –
2 | Cc1ccc2[nH]cc(CC(=O)NCCCNCCCCCCCCNCCCNC(=O)Cc3c[nH]c4ccc(C)cc34)c2c1.O=C(O)C(F)(F)F.O=C(O)C(F)(F)F [Compound 17d, N^1,N^8-Bis(3-(2-(5-methyl-1H-indol-3-yl)acetamido)propyl)octane-1,8-diaminium 2,2,2-trifluoroacetate] | 121 | > 1 | 241 | > 39 | ≤ 0.3 | 15.1 | 2.41 | > 241 | 0.42 | ≤ 0.3 | 241 | –
3 | O=C(Cc1c[nH]c2c(F)cccc12)NCCCNCCCCCCCNCCCNC(=O)Cc1c[nH]c2c(F)cccc12.O=C(O)C(F)(F)F.O=C(O)C(F)(F)F [Compound 18c, N^1,N^7-Bis(3-(2-(7-fluoro-1H-indol-3-yl)acetamido)propyl)heptane-1,7-diaminium 2,2,2-trifluoroacetate] | 243 | > 1 | 243 | > 39 | ≤ 0.3 | 30.4 | 38.9 | > 243 | 1.94 | ≤ 0.3 | > 243 | –
4 | O=C(Cc1c[nH]c2c(F)cccc12)NCCCNCCCCCCCCNCCCNC(=O)Cc1c[nH]c2c(F)cccc12.O=C(O)C(F)(F)F.O=C(O)C(F)(F)F [Compound 18d, N^1,N^8-Bis(3-(2-(7-fluoro-1H-indol-3-yl)acetamido)propyl)octane-1,8-diaminium 2,2,2-trifluoroacetate] | > 239 | 1 | > 239 | > 38 | < 0.2 | 29.9 | > 38 | > 239 | >38 | < 0.2 | > 239 | –
5 | O=C(Cc1c[nH]c2c(F)cccc12)NCCCNCCCCCCCCCCNCCCNC(=O)Cc1c[nH]c2c(F)cccc12.O=C(O)C(F)(F)F.O=C(O)C(F)(F)F [Compound 18e, N^1,N^10-Bis(3-(2-(7-fluoro-1H-indol-3-yl)acetamido)propyl)decane-1,10-diaminium 2,2,2-trifluoroacetate] | 57.8 | 1 | 231 | > 37 | ≤ 0.29 | 7.23 | 2.31 | > 231 | 1.49 | ≤ 0.29 | 116 | –
6 | O=C(Cc1c[nH]c2c(F)cccc12)NCCCNCCCCCCCCCCCCNCCCNC(=O)Cc1c[nH]c2c(F)cccc12.O=C(O)C(F)(F)F.O=C(O)C(F)(F)F [Compound 18f, N^1,N^12-Bis(3-(2-(7-fluoro-1H-indol-3-yl)acetamido)propyl)dodecane-1,12-diaminium 2,2,2-trifluoroacetate] | 14.0 | 1 | 224 | 27.2 | ≤ 0.28 | 7 | ≤ 0.28 | 224 | ≤0.28 | ≤ 0.28 | 28 | –
7 | COc1cccc2c(CC(=O)NCCCNCCCCNCCCNC(=O)Cc3c[nH]c4c(OC)cccc34)c[nH]c12.O=C(O)C(F)(F)F.O=C(O)C(F)(F)F [Compound 19a, N^1,N^4-Bis(3-(2-(7-methoxy-1H-indol-3-yl)acetamido)propyl)butane-1,4-diaminium 2,2,2-trifluoroacetate] | > 249 | 1 | > 249 | > 40 | 19.9 | 124 | > 40 | > 249 | >40 | 19.9 | > 249 | –
8 | COc1cccc2c(CC(=O)NCCCNCCCCCCNCCCNC(=O)Cc3c[nH]c4c(OC)cccc34)c[nH]c12.O=C(O)C(F)(F)F.O=C(O)C(F)(F)F [Compound 19b, N^1,N^6-Bis(3-(2-(7-methoxy-1H-indol-3-yl)acetamido)propyl)hexane-1,6-diaminium 2,2,2-trifluoroacetate] | 240 | 1 | > 240 | > 38 | < 0.2 | 30 | > 38 | > 240 | – | < 0.2 | 240 | –
9 | COc1cccc2c(CC(=O)NCCCNCCCCCCCCCCNCCCNC(=O)Cc3c[nH]c4c(OC)cccc34)c[nH]c12.O=C(O)C(F)(F)F.O=C(O)C(F)(F)F [Compound 19e, N^1,N^10-Bis(3-(2-(7-methoxy-1H-indol-3-yl)acetamido)propyl)decane-1,10-diaminium 2,2,2-trifluoroacetate] | 225 | > 1 | 225 | > 36 | < 0.2 | 28.1 | > 36 | > 225 | – | < 0.2 | > 225 | –
10 | Cc1cccc2c(CC(=O)NCCCNCCCCCCCCNCCCNC(=O)Cc3c[nH]c4c(C)cccc34)c[nH]c12.O=C(O)C(F)(F)F.O=C(O)C(F)(F)F [Compound 20d, N^1,N^8-Bis(3-(2-(7-methyl-1H-indol-3-yl)acetamido)propyl)octane-1,8-diaminium 2,2,2-trifluoroacetate] | 241 | 1 | > 241 | > 39 | < 0.2 | 30.2 | 38.6 | > 241 | – | < 0.2 | 241 | –
11 | O=C(N[C@H](CO)[C@H](O)c1ccc([N+](=O)[O-])cc1)C(Cl)Cl [chloramphenicol, reference compound] | – | – | – | – | – | 1.5 to 3 (≈ 0.485 to 0.969 µg/mL) | – | – | – | – | – | –
12 | OC(Cn1cncn1)(Cn1cncn1)c1ccc(F)cc1F [fluconazole, reference compound] | – | – | – | – | – | – | 0.4 (≈ 0.123 µg/mL) | – | – | 26 (≈ 7.96 µg/mL) | – | –
13 | [H]/N=C(/N)N[C@H]1[C@H](O)[C@@H](O)[C@H](O[C@@H]2O[C@@H](C)[C@](O)(C=O)[C@H]2O[C@@H]2O[C@@H](CO)[C@H](O)[C@@H](O)[C@@H]2NC)[C@@H](N/C(N)=N\[H])[C@@H]1O [streptomycin, reference compound] | – | – | – | – | – | 21.5 (≈ 12.5 µg/mL) | – | 21.5 (≈ 12.5 µg/mL) | – | – | 21.5 (≈ 12.5 µg/mL) | –
14 | CC/C(=C(\c1ccccc1)c1ccc(OCCN(C)C)cc1)c1ccccc1 [tamoxifen, reference compound] | – | – | – | 24 | – | – | – | – | – | – | – | –
15 | CN[C@H](CC(C)C)C(=O)N[C@H]1C(=O)N[C@@H](CC(N)=O)C(=O)N[C@H]2C(=O)N[C@H]3C(=O)N[C@H](C(=O)N[C@H](C(=O)O)c4cc(O)cc(O)c4-c4cc3ccc4O)[C@H](O)c3ccc(c(Cl)c3)Oc3cc2cc(c3O[C@@H]2O[C@H](CO)[C@@H](O)[C@H](O)[C@H]2O[C@H]2C[C@](C)(N)[C@H](O)[C@H](C)O2)Oc2ccc(cc2Cl)[C@H]1O [vancomycin, reference compound] | – | – | – | – | – | – | – | – | – | – | – | 0.7 (≈ 1.01 µg/mL)
